Experimental data: US11802120B2, “Fused cyclic urea derivatives as CRHR2 antagonist” (RaQualia Pharma Inc., priority 2018, dated 2023)
pIC50: −log10 of the molar value.

Target: T1, human CRHR2-alpha (Homo sapiens, UniProt Q13324)
T1 sequence (Q13324 1-411): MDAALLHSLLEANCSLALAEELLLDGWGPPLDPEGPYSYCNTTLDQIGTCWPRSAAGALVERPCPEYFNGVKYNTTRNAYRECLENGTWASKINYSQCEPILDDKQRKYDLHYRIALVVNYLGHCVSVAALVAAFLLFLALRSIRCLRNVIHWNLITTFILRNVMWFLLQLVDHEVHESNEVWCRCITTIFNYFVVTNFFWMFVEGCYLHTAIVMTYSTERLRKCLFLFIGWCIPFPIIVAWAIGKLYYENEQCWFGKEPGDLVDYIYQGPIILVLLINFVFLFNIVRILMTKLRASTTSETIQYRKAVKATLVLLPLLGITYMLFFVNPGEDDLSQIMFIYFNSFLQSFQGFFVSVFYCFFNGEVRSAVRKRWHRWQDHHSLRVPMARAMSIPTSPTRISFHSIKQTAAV
Experiment: cAMP functional assay for human CRHR2 (LANCE Ultra cAMP, TR-FRET)
Assay type: cell-based
Conditions: CHO-K1 cells expressing human CRHR2-alpha, agonist human urocortin2 at EC80, cAMP; read-out: IC50 against CRHR2
How it was run: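 Antagonism measured in CHO-K1 cells stably expressing the receptor, serum-starved 7 h then cryopreserved. Thawed cells in HBSS buffer with 0.1% BSA, 0.5 mM IBMX, 5 mM Hepes pH 7.4 were preincubated with compound 30 min at 25° C, then stimulated 30 min with EC80 agonist: urocortin2 for CRHR2, CRF for CRHR1.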

Structure (SMILES)	pIC50
O=C(N[C@H]1CC[C@H](Cn2c(=O)n(-c3ccc(N[C@@H]4CCOC4)nc3)c3ccccc32)CC1)c1cc(Cl)cnc1C(F)(F)F [Example 300, 5-chloro-N-((1R,4r)-4-((2-oxo-3-(6-(((R)-tetrahydro-furan-3-yl)amino)pyridin-3-yl)-2,3-dihydro-1H-benzo [d]imidazol-1-yl)methyl)cyclohexyl)-2-(trifluoro-methyl)nicotinamide]	> 6.52
O=C(N[C@H]1CC[C@H](Cn2c(=O)n(-c3ccc(OCCO)nc3)c3ccccc32)CC1)c1cc(Cl)cnc1C(F)(F)F [Example 301, 5-chloro-N-((1r,4r)-4-((3-(6-(2-hydroxyethoxy)pyridin-3-yl)-2-oxo-2,3-dihydro-1H-benzo[d]imidazol-1-yl)methyl)cyclohexyl)-2-(trifluoromethyl)nicotinamide]	> 6.52
Cc1ccc(-n2c(=O)n(C[C@H]3CC[C@H](NC(=O)c4cc(Cl)cnc4C(F)(F)F)CC3)c3cccc(C)c32)cn1 [Example 302, 5-chloro-N-((1r,4r)-4-((4-methyl-3-(6-methylpyridin-3-yl)-2-oxo-2,3-dihydro-1H-benzo[d]imidazol-1-yl)methyl)cyclohexyl)-2-(trifluoromethyl)nicotinamide]	> 6.52
Cn1cc(CCn2c(=O)n(C[C@H]3CC[C@H](NC(=O)c4cc(Cl)cnc4C(F)(F)F)CC3)c3ccccc32)cn1 [Example 303, 5-chloro-N-((1r,4r)-4-((3-(2-(1-methyl-1H-pyrazol-4-yl)ethyl)-2-oxo-2,3-dihydro-1H-benzo[d]imidazol-1-yl)methyl)cyclohexyl)-2-(trifluoromethyl)nicotinamide]	> 6.52
CCn1nnc2cc(-n3c(=O)n(C[C@H]4CC[C@H](NC(=O)c5cc(Cl)cnc5C)CC4)c4ccccc43)ccc21 [Example 304, 5-chloro-N-((1r,4r)-4-((3-(1-ethyl-1H-benzo[d][1,2,3]triazol-5-yl)-2-oxo-2,3-dihydro-1H-benzo[d]imidazol-1-yl)methyl)cyclo-hexyl)-2-methylnicotinamide]	> 6.52
Cc1ncc(Cl)cc1C(=O)N[C@H]1CC[C@H](Cn2c(=O)n(-c3ccc4c(=O)[nH]cnc4c3)c3ccccc32)CC1 [Example 305, 5-chloro-2-methyl-N-((1r,4r)-4-((2-oxo-3-(4-oxo-3,4-dihydroquinazolin-7-yl)-2,3-dihydro-1H-benzol[d]imidazol-1-yl)methyl)cyclohexyl)nicotinamide]	> 6.52
Cc1ncc(Cl)cc1C(=O)N[C@H]1CC[C@H](Cn2c(=O)n(-c3ccc(C=O)cc3C#N)c3ccccc32)CC1 [Example 306, 5-chloro-N-((1r,4r)-4-((3-(2-cyano-4-formylphenyl)-2-oxo-2,3-dihydro-1H-benzo[d]imidazol-1-yl)methyl)cyclo-hexyl)-2-methylnicotinamide]	> 6.52
Cc1ncc(Cl)cc1C(=O)N[C@H]1CC[C@H](Cn2c(=O)n(-c3cc(Br)ccc3C#N)c3ccccc32)CC1 [Example 307, N-((1r,4r)-4-((3-(5-bromo-2-cyanophenyl)-2-oxo-2,3-dihydro-1H-benzo[d]imidazol-1-yl)methyl)cyclohexyl)-5-chloro-2-methylnicotinamide]	> 6.52
Cc1cc(C#N)c(-n2c(=O)n(C[C@H]3CC[C@H](NC(=O)c4cc(Cl)cnc4C)CC3)c3ccccc32)cn1 [Example 308, 5-chloro-N-((1r,4r)-4-((3-(4-cyano-6-methylpyridin-3-yl)-2-oxo-2,3-dihydro-1H-benzo[d]imidazol-1-yl)methyl)cyclohexyl)-2-methylnicotinamide]	> 6.52
Cc1ncc(Cl)cc1C(=O)N[C@H]1CC[C@H](Cn2c(=O)n(-c3cccc(N(C)C)c3C#N)c3ccccc32)CC1 [Example 309, 5-choro-N-((1r,4r)-4-((3-(2-cyano-3-(dimethylamino)phenyl)-2-oxo-2,3-dihydro-1H-benzo[d]imidazol-1-yl)methyl)cyclohexyl)-2-methylnicotinamide]	> 6.52
COCCNc1cc(C#N)c(-n2c(=O)n(C[C@H]3CC[C@H](NC(=O)c4cc(Cl)cnc4C)CC3)c3ccccc32)cn1 [Example 310, 5-chloro-N-((1r,4r)-4-((3-(4-cyano-6-((2-methoxyethyl)amino)pyridin-3-yl)-2-oxo-2,3-dihydro-1H-benzo[d]imidazol-1-yl)methyl)cyclohexyl)-2-methylnicotinamide]	> 6.52
N#Cc1ccncc1-n1c(=O)n(C[C@H]2CC[C@H](NC(=O)c3cc(Cl)cnc3C(F)(F)F)CC2)c2ccccc21 [Example 311, 5-chloro-N-((1r,4r)-4-((3-(4-cyanopyridin-3-yl)-2-oxo-2,3-dihydro-1H-benzo[d]imidazol-1-yl)methyl)cyclo-hexyl)-2-(trifluoromethyl) nicotinamide]	> 6.52
N#Cc1cccnc1-n1c(=O)n(C[C@H]2CC[C@H](NC(=O)c3cc(Cl)cnc3C(F)(F)F)CC2)c2ccccc21 [Example 312, 5-chloro-N-((1r,4r)-4-((3-(3-cyanopyridin-2-yl)-2-oxo-2,3-dihydro-1H-benzo[d]imidazol-1-yl)methyl)cyclo-hexyl)-2-(trifluoromethyl) nicotinamide]	> 6.52
CNC(=O)c1cc(C)c(-n2c(=O)n(C[C@H]3CC[C@H](NC(=O)c4cc(Cl)cnc4C(F)(F)F)CC3)c3ccccc32)cn1 [Example 313, 5-(3-(((1r,4r)-4-(5-chloro-2-(trifluoromethyl)nico-tinamido)cyclohexyl)methyl)-2-oxo-2,3-dihydro-1H-benzo[d]imidazol-1-yl)-N,4-dimethylpicolinamide]	> 6.52
O=C(N[C@H]1CC[C@H](Cn2c(=O)n(Cc3cscn3)c3ccccc32)CC1)c1cc(Cl)cnc1C(F)(F)F [Example 314, 5-chloro-N-((1r,4r)-4-((2-oxo-3-(thiazol-4-ylmethyl)-2,3-dihydro-1H-benzo[d]imidazol-1-yl)methyl)cyclo-hexyl)-2-(trifluoromethyl) nicotinamide]	> 6.52
Cc1ccc(-n2c(=O)n(C[C@H]3CC[C@H](NC(=O)c4cc(Cl)cnc4C(F)(F)F)CC3)c3ccccc32)c(C)n1 [Example 315, 5-chloro-N-((1r,4r)-4-((3-(2,6-dimethylpyridin-3-yl)-2-oxo-2,3-dihydro-1H-benzo [d]imidazol-1-yl)methyl)cyclohexyl)-2-(trifluoro-methyl)nicotinamide]	> 6.52
Cc1cc(-n2c(=O)n(C[C@H]3CC[C@H](NC(=O)c4cc(Cl)cnc4C(F)(F)F)CC3)c3ccccc32)ccn1 [Example 316, 5-chloro-N-((1r,4r)-4-((3-(2-methylpyridin-4-yl)-2-oxo-2,3-dihydro-1H-benzo [d]imidazol-1-yl)methyl)cyclohexyl)-2-(trifluoro-methyl)nicotinamide]	> 6.52
CNC(=O)c1ccc(-n2c(=O)n(C[C@H]3CC[C@H](NC(=O)c4cc(Cl)cnc4C4CC4)CC3)c3ccccc32)cn1 [Example 317, 5-(3-(((1r,4r)-4-(5-chloro-2-cyclopropylnicotinamido)cyclohexyl)methyl)-2-oxo-2,3-dihydro-1H-benzo[d]imidazol-1-yl)-N-methyl-picolinamide]	> 6.52
Cc1ncc(Cl)cc1C(=O)N[C@H]1CC[C@H](Cn2c(=O)n(-c3cccnc3C(F)(F)F)c3ccccc32)CC1 [Example 318, 5-chloro-2-methyl-N-((1r,4r)-4-((2-oxo-3-(2-(trifluoro-methyl)pyridin-3-yl)-2,3-dihydro-1H-benzo[d]imidazol-1-yl)methyl)cyclohexyl) nicotinamide]	> 6.52
